Values of other authors, collected in patent US11332491B2, “E-selectin antagonist compounds, compositions, and methods of use” (GLYCOMIMETICS, INC., priority 2011, dated 2022).

System: human AML engrafted in NODscid IL2Rgc-/- mice
Settings: ASH 2011 abstracts

c1cc(CN2CCCNCCNCCCNCC2)ccc1CN1CCCNCCNCCCNCC1 [plerixafor]
mobilization of human AML: approximately 2 fold
